Read-outs that look alike come from different tables or passages of the source.
How the values were obtained:
[1] = biological target: BTK (Homo sapiens, UniProt Q06187); assay: Degradation of BTK protein in Namalwa cells (Western blot; DC50, Dmax); conditions: for DC50: cell line not given
[2] = test system: Mino cells; assay: Antiproliferative effect, MTS cell viability assay, Mino cells; format: cell-based; conditions: Homo sapiens, MINO, Mino mantle cell lymphoma cells; read-out: IC50 (anti-proliferation) Mino cells
In short: (§1)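 Readout was MTS-derived formazan absorbance (490 nm) reflecting metabolically active cells. Treatment lasted 72 h over a 0–10 μM range (0.001, 0.01, 0.1, 1, 10 μM) in JeKo-1 and Mino B-cell malignancy cells.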

[3] = test system: JeKo-1 cells; assay: Antiproliferative effect, MTS cell viability assay, JeKo-1 cells; format: cell-based; conditions: Homo sapiens; JeKo-1 mantle cell lymphoma cells; read-out: IC50 (anti-proliferation) JeKO-1 cells
In short: as §1

[4] = read-out: DC50 (BTK degradation), concentration giving 50% reduction of BTK expression level
[5] = read-out: Dmax (BTK degradation)

BTK, sequence (Q06187 whole entry): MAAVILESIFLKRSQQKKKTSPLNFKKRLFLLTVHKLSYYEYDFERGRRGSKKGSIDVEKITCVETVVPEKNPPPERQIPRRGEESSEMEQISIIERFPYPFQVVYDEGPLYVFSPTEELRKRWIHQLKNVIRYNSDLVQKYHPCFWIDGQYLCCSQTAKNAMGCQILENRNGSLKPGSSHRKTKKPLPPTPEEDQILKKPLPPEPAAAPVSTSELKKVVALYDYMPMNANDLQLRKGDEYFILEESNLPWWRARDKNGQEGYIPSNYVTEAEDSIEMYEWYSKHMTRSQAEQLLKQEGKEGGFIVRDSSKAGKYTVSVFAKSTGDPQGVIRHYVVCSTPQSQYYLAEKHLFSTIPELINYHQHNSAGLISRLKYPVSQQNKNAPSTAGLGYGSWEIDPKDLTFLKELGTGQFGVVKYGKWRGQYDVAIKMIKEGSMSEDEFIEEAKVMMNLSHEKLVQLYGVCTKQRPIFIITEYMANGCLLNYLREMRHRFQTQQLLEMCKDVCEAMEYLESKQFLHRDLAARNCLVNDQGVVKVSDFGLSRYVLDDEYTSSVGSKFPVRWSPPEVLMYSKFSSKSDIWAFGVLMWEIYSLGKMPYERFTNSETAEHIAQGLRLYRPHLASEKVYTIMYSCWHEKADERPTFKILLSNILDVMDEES

DC50 [1, 4] [nM]	Dmax [1, 5] [%]	Dmax [1] [%]	DC50 ([1]; BTK degradation) [nM]	degradation of BTK protein ([1]; Namalwa B lymphocyte cells, various concentrations, 24 hours, Western blot)	SMILES	IC50 [2] [nM]	IC50 [3] [nM]
< 10	> 90	–	–	dose-dependent degradation	Nc1ncnc2c1c(-c1ccc(Oc3ccccc3)cc1)nn2C1CCN(CC2CN(CC3CCN(c4ccc5c(c4)C(=O)N(C4CCC(=O)NC4=O)C5=O)C3)C2)CC1 (centres unmarked) [Compound 443, 5-(3-((3-((4-(4-amino-3-(4-phenoxyphenyl)-1H-pyrazolo(3,4-d)pyrimidin-1-yl)piperidin-1-yl)methyl)azetidin-1-yl)methyl)pyrrolidin-1-yl)-2-(2,6-dioxopiperidin-3-yl)isoindoline-1,3-dione]	< 1000	< 1000
< 10	> 90	–	–	–	Nc1ncnc2c1c(-c1ccc(Oc3ccccc3)cc1)nn2[C@@H]1CCCN(C(=O)N2CC(N3CCN(c4ccc5c(c4)CN(C4CCC(=O)NC4=O)C5=O)CC3)C2)C1 (stereo partly drawn) [Compound 488, 3-(5-(4-(1-((R)-3-(4-amino-3-(4-phenoxyphenyl)-1H-pyrazolo[3,4-d]pyrimidin-1-yl)piperidine-1-carbonyl)azetidin-3-yl)piperazin-1-yl)-1-oxoisoindolin-2-yl)piperidine-2,6-dione]	< 1000	< 1000
< 10	> 90	–	–	–	Nc1ncnc2c1c(-c1ccc(Oc3ccccc3)cc1)nn2C1CCN(C(=O)N2CC(N3CCN(c4ccc5c(c4)C(=O)N([C@@H]4CCC(=O)NC4=O)C5=O)CC3)C2)CC1 [Compound 485, (R)-5-(4-(1-(4-(4-amino-3-(4-phenoxyphenyl)-1H-pyrazolo[3,4-d]pyrimidin-1-yl)piperidine-1-carbonyl)azetidin-3-yl)piperazin-1-yl)-2-(2,6-dioxopiperidin-3-yl)isoindoline-1,3-dione]	< 1000	< 1000
–	–	> 75	10 to 50	–	Nc1ncnc2c1c(-c1ccc(Oc3ccccc3)cc1)nn2C1CCN(C2CCN(CCN3CCN(c4ccc5c(c4)CN(C4CCC(=O)NC4=O)C5=O)CC3)CC2)CC1 (centres unmarked) [Compound 218, 3-(5-(4-(2-(4-(4-amino-3-(4-phenoxyphenyl)-1H-pyrazolo[3,4-d]pyrimidin-1-yl)-[1,4′-bipiperidin]-1′-yl)ethyl)piperazin-1-yl)-1-oxoisoindolin-2-yl)piperidine-2,6-dione]	1000 to 10000	< 1000

Second part, the compound before the results:

SMILES	DC50 [1, 4] [nM]	Dmax [1, 5] [%]	Dmax [1] [%]	DC50 ([1]; BTK degradation) [nM]	degradation of BTK protein ([1]; Namalwa B lymphocyte cells, various concentrations, 24 hours, Western blot)	IC50 [2] [nM]	IC50 [3] [nM]
Nc1ncnc2c1c(-c1ccc(Oc3ccccc3)cc1)nn2C1CCN(CCN2CCC(CC3CCN(c4ccc(NC5CCC(=O)NC5=O)cc4)CC3)C2)CC1 (centres unmarked) [Compound 564, 3-((4-(4-((1-(2-(4-(4-amino-3-(4-phenoxyphenyl)-1H-pyrazolo[3,4-d]pyrimidin-1-yl)piperidin-1-yl)ethyl)pyrrolidin-3-yl)methyl)piperidin-1-yl)phenyl)amino)piperidine-2,6-dione]	10 to 50	> 90	–	–	–	< 1000	< 1000
NC(=O)c1c(-c2ccc(Oc3ccccc3)cc2)nn2c1NCCC2C1CCN(C2CCN(C(=O)N3CCC(N4CCC(c5ccc6c(c5)CN(C5CCC(=O)NC5=O)C6=O)CC4)CC3)CC2)CC1 (centres unmarked) [Compound 348, 7-(1′-(4-(2-(2,6-dioxopiperidin-3-yl)-1-oxoisoindolin-5-yl)-[1,4′-bipiperidine]-1′-carbonyl)-[1,4′-bipiperidin]-4-yl)-2-(4-phenoxyphenyl)-4,5,6,7-tetrahydropyrazolo[1,5-a]pyrimidine-3-carboxamide]	–	–	> 90	< 10	–	< 1000	< 1000
NC(=O)c1c(-c2ccc(Oc3ccccc3)cc2)nn2c1NCC[C@H]2C1CCN(C2CCN(C(=O)N3CCC(C4CCN(c5ccc6c(c5)CN(C5CCC(=O)NC5=O)C6=O)CC4)CC3)CC2)CC1 (stereo partly drawn) [Compound 384, (7S)-7-(1′-(1′-(2-(2,6-dioxopiperidin-3-yl)-1-oxoisoindolin-5-yl)-[4,4′-bipiperidine]-1-carbonyl)-[1,4′-bipiperidin]-4-yl)-2-(4-phenoxyphenyl)-4,5,6,7-tetrahydropyrazolo[1,5-a]pyrimidine-3-carboxamide]	–	–	> 90	< 10	–	< 1000	1000 to 10000

Reference: US12139492B2 (Endotarget Inc., priority 2021, dated 2024)
